Test results: patent US5968954A, “2-aminoindan compounds as 5HT1B antagonists” (Adir et Compagnie, priority 1997, dated 1999)

How the values were obtained:
[1] = tested on: extracellular concentration of serotonin in frontal cortex; test: Microdialysis experiment in rats (frontal cortex, extracellular serotonin); type: in vivo; settings: rat frontal cortex, M ± s.e.m.
Description: Carried out in the frontal cortex, these tests make it possible, in the case where the products cause an increase in the release of serotonin, to envisage their use for depression, impulsive disorders and obesity. If they cause a decrease in the release of serotonin they will be beneficial in the treatment of anxiety, panic attacks, sleep problems, cognitive problems and drug abuse problems. Finally, if they produce an increase in dopamine and/or noradrenalin, they will be beneficial in the treatment of schizophrenia and, as above, in the treatment of depression and cognitive problems.
Microdialysis Experiment in Rats
The rats are anaesthetised with pentobarbital (60 mg/kg i.p.). They are placed in a Kopf stereotaxic apparatus and the cannula guide is implanted in the frontal cortex cingulum in accordance with the coordinates described as follows in the Paxinos and Watson atlas (1982): AP:+2.2, L:±0.6, DV:-0.2. The rats are placed in separate cages and are not used in dialysis until 5 days later. On the day of dialysis, the probe is slowly inserted and maintained in its position. […] Simultaneous quantification of dopamine, norepinephrine and serotonin is carried out as follows: 20 μl of dialysis samples are diluted with 20 μl of mobile phase (NaH2 PO4 : 75 mM, EDTA: 20 μM, sodium 1-decanesulphonate: 1 mM, methanol: 17.5%, triethylamine: 0.01%, pH: 5.70) and 33 μl are analysed by HPLC with an inverse phase column (Hypersil ODS 5 μm, C18, 150×4.6 mm, Thermo Separation Products, Les Ulis, France) thermostatically controlled at 45° C. and quantified by way of a coulometric detector. […]
M±s.e.m.=mean of the effect all times merged after administration of the products±standard error of the mean, and n=number of animals. The quantities of the neurotransmitters are expressed as a function of the mean of the three base values before administration of the products and are defined as 0%. […] The reversion of the decrease of the extracellular concentration of serotonin produced by GR 46611 is evaluated statistically by an analysis of variance with drugs as between factor, F (1,25)=26.5, P<0.01.

[2] = tested on: GR46611-induced hypothermia (prototype agonist 5HT1B) in the guinea-pig; test: Hypothermia test in the guinea-pig; type: in vivo; settings: for ΔT° C. (at 90 minutes): mean ± s.e.m., N ≥ 6
Description: Using the hypothermia test on the guinea-pig (M. Stingle et al., J. of Pychopharmacology, 1994. 8, 14) it was possible to determine the agonist or antagonist nature of the products of the invention.
Hypothermia Test in the Guinea-Pig
The guinea-pigs are kept in batteries of three, with free access to food and water, for one week before entering the study. One hour before each experiment, the guinea-pigs are placed in individual cages with free access to water. They are put back in their respective batteries at the end of each experiment. The temperature measurements are carried out using a digital thermometer and a rectal probe. Each guinea-pig is weighed, its base body temperature is taken and then the compound of the present invention to be evaluated is injected i.p. or p.o. In the case of an agonist, the body temperature of each guinea-pig is taken every 30 minutes for 2 hours.
In the case of an antagonist, 15 minutes after its injection each guinea-pig is injected again i.p. with the prototype agonist 5HT1B : GR46611 (5 mg/kg). The temperature is then taken every 30 minutes for 2 hours.
The criterion used for evaluation is the difference in temperature at a given time in relation to the base temperature. For each dose of product and for each time (t30, t60, t90, t120) the mean and the standard error of the mean are calculated.

5HT1B receptor = target: T1, 5HT1B receptor (Cavia porcellus, UniProt O08892); test: 5-HT1B binding ([3H]-GR 125743, guinea-pig striatal membranes); settings: [3H]-GR 125743 1 nM, guinea-pig striata membranes; pKi = -log Ki
T1 construct: After the dissection of guinea-pig brains, the extracted striata are frozen; from tissue; host or cells: guinea-pig striatum membranes
T1 sequence (O08892 whole entry): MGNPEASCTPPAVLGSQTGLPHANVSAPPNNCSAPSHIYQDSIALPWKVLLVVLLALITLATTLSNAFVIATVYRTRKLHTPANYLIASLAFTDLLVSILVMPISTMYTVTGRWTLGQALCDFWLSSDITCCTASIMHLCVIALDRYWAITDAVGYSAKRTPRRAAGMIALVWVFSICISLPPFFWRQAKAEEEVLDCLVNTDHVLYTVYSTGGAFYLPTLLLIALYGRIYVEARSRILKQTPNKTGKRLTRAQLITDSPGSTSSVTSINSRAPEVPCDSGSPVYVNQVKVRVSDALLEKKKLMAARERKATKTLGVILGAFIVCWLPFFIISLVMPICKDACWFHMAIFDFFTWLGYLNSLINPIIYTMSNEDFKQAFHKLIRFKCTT
Method: a) Preparation of the Membranes
After the dissection of guinea-pig brains, the extracted striata are frozen and then homogenised in 20 volumes (weight/volume) of 50 mM tris-HCl (pH 7.7 at room temperature) containing 4 mM CaCl2 and 0.1% ascorbic acid, and centrifuged at 48,000 g for 25 minutes at 4° C. The supernatant is separated and the precipitate is resuspended in the same volume of buffer before being incubated at 37° C. for 15 minutes in order to extract the endogenous serotonin. Finally, the suspension is centrifuged at 48,000 g for 25 minutes at 4° C. and the precipitate is resuspended in 80 volumes of buffer that contains 10 μM pargyline. […]
The data are analysed by non-linear regression using the PRISM programme (Graphpad Software Inc., San Diego, Calif.) in order to determine the Kd values (dissocation constant of the radioligand), the Bmax values (maximum number of sites) for the saturation experiments and the IC50 values (50% inhibiting concentration) and the Hill number for the competition experiments. The inhibition constant (Ki) is calculated according to the Cheng-Prussof equation: Ki =IC50 /1+L/Kd wherein L represents the concentration of the radioligand. The results are expressed as pKi =-log Ki.

5HT1A receptor = target: T2, 5HT1A receptor (Rattus norvegicus, UniProt P19327); test: 5HT1A binding; settings: methods known from the literature; read-out: pKi 5HT1A receptor (converted)
T2 sequence (P19327 1-422): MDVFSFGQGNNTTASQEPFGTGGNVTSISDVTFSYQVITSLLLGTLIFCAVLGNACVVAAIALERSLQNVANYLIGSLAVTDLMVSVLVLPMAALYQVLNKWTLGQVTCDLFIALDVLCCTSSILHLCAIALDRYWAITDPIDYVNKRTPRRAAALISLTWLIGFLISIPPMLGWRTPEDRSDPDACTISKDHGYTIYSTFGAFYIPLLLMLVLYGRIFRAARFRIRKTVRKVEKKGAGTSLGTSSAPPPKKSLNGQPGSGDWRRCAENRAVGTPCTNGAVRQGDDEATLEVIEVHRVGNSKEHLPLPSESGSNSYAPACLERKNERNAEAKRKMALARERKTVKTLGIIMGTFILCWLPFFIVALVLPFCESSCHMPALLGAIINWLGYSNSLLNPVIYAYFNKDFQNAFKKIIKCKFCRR
Method: The 5HT1A receptor binding studies were carried out according to methods known and described in the literature (cf. S. J. Peroutka, J. Neurochem., 1986, 47, 529-40, M. J. Millan, J. Pharmacol. Exp. Ther., 1994, 268, 337-52). The results are also expressed as pKi. The compounds of the present invention have a very low affinity for the 5HT1A receptor.

c1ccc2c(c1)CC(NC1CCN(c3cccc4c3OCCO4)CC1)C2 [Example 1, 1-(2,3-dihydro[1,4]benzodioxin-5-yl)-4-[N-(indan-2-yl)amino]piperidine]
extracellular serotonin, mean effect all times merged relative to base values (0%) ([1]; Product of Example 1 10.0 mg/kg s.c. + GR 46611 10.0 mg/kg s.c. 20 minutes later): +0.7 ± 3.4%
extracellular serotonin, mean effect all times merged relative to base values (0%) ([1]; Product of Example 1 10.0 mg/kg s.c. + Vehicle): -9.5 ± 3.7%
ΔT° C. (at 90 minutes) ([2]; Product of Example 1 0.04 mg/kg i.p. then GR 46611 5 mg/kg i.p.): -0.82 ± 0.30 °C
ΔT° C. (at 90 minutes) ([2]; Product of Example 1 0.16 mg/kg i.p. then GR 46611 5 mg/kg i.p.): -0.75 ± 0.22 °C
agonist or antagonist nature ([2]; hypothermia test, i.p.): acts as an antagonist

c1cc2c(c(N3CCC(NC4Cc5cc6c(cc5C4)OCO6)CC3)c1)OCCO2 [Example 3, 1-(2,3-dihydro[1,4]benzodioxin-5-yl)-4-[N-(5,6-methylenedioxyindan-2-yl)amino]-piperidine]
Ki (5HT1B receptor): 3.16 nM
Ki (5HT1A receptor): 631 nM

COc1ccc(CNC(=O)C=Cc2ccc3[nH]cc(CCN(C)C)c3c2)cc1 [GR 46611, reference compound]
extracellular serotonin, mean effect all times merged relative to base values (0%) ([1]; Vehicle + GR 46611 10.0 mg/kg s.c.): -40.7 ± 2.3%
ΔT° C. (at 90 minutes) ([2]; Vehicle i.p. then GR 46611 5 mg/kg i.p.): -1.04 ± 0.15 °C
